| Structure (SMILES) | melting point [°C] |
| --- | --- |
| COc1ccc(C2(O)C(=O)Nc3ccc(Cl)cc32)cc1 (stereo not given) | 202 |
| COc1ccc2c(c1)sc1nc(C(=O)C3CC3)cn12 | 213 |
| Cn1c(=O)oc2cc(CCN3CCN(c4ccc(F)cc4)CC3)ccc21 | 161 to 164 |
| O=C(C=C(c1ccccc1)N1CNc2cccnc21)OCCC(OCCCc1ccc(Cl)cc1)C(=O)O (stereo not given) | 95 |
| C#CCN1C(=O)NC(C)(C)C1=O | 156 to 160 |
| Cc1ccc(-c2[nH]nc(COCCCO[N+](=O)[O-])c2-c2ccc(S(N)(=O)=O)cc2)cc1 | 62 |
| Cc1cc(N)c(Cl)c(N)c1 | 114 to 116 |
| CC#CC(C)Oc1cc(N)c(Cl)cc1C(=O)O (stereo not given) | 114 to 116 |
| CC1CC(C)CN(S(=O)(=O)c2cc(Cl)cc(C(=O)O)c2)C1 (stereo not given) | 226 to 231 |
| Cc1ccc2nc(N3CC[C@H](NCCO)C3)ccc2c1NC(=O)CC1CCCCC1 | 204 to 207 |
| CN1CCCC1=NCCOS(=O)(=O)Oc1c[nH]c2ccccc12 | 154 to 158 |
| Cn1c(=O)ccc2cnc(N3CCC[C@H]3CO)nc21 | 143 to 144 |
| CCCCCCC(O)CCCCCCCCCCC(=O)OC (stereo not given) | 58 |
| CC(C)c1nc(CC#N)n(C)c1Sc1cc(Cl)cc(Cl)c1 | 103 to 105 |
| COC(=O)C(CCCN(C)CCc1ccc(OC)c(OC)c1)c1ccc(OC)c(OC)c1 (stereo not given) | 112 to 114 |
| Cc1cc(C)cc(Oc2c(C(C)C)c(=O)[nH]c(=O)n2CCC2C=CCC2)c1 (stereo not given) | 148 to 149 |
| CCCCc1ccccc1C1C(C(=O)OCC)=C(CCC)Nc2[nH]ncc21 (stereo not given) | 175 |

| Structure (SMILES) | melting point [°C] |
| --- | --- |
| CNC(=O)COc1ccc2c(-c3ccccc3F)noc2c1Cl | 164 |
| Cc1c(-c2ccncc2)c(-c2ccc(F)cc2)n2c1SCC2 | 208 |
| CCCOC12CCC(=O)C3(C)Oc4c(O)ccc5c4C31CCN(C)C2C5 (stereo not given) | 193 to 195 |
| COc1ccnc(CS(=O)c2nc3cc(Cl)c(Cl)cc3[nH]2)c1C (stereo not given) | 173 |
| C[C@H](CO)NN1c2[nH]c(=O)cnc2C=NC1SCc1cccc(C(F)(F)F)c1F (stereo not given in full) | 217 to 219 |
| CC(C)(C)Sc1ccc(CN(O)C(N)=O)s1 | 101 to 103 |
| c1ccc(N2CCN(c3nc4cccc5c4n3CCC5)CC2)cc1 | 168 to 169 |
| CCCNC(=O)C1(CCCCO)c2ccccc2-c2ccccc21 | 73 to 75 |
| CC(C)(C)OC(=O)Nc1cc(CC#N)c(I)cc1[N+](=O)[O-] | 124 to 126 |
| Cc1ccc(-c2n[nH]c(=O)c(-c3ccccc3)c2-c2ccc(C)cc2)cc1 | 282 to 284 |
| Cc1ccccc1-c1ccc(C(=O)N2Cc3ccc(C(=O)NCc4ccc(Cl)cc4)n3Cc3ccccc32)cc1C | 196 to 197 |
| CC(O)(CCN)C1(F)C=CC(c2ccccc2)=CC1 (stereo not given) | 144 to 146 |
| O=C(O)CCc1oc(N2CCOCC2)nc1-c1ccc(Cl)cc1 | 180 to 181 |
| C(=C(c1ccccc1)c1ccccc1)c1ccc(N(c2ccccc2)c2ccc3c4c(cccc24)CC3)cc1 | 189 to 190 |
| N#Cc1cc(-c2ccc(Cl)cc2)nc(Oc2ccc(F)c(C(F)(F)F)c2)n1 | 131 to 132 |
| CCOC(=O)C(=O)Nc1ccc(C=Cc2ccc3ccccc3n2)cc1 | 160 to 162 |
| COC(=O)C1=CC(C)(C#N)N(c2cccc(Cl)c2Cl)N1 (stereo not given) | 66 to 67 |

More lines, now with the values ahead:

| melting point [°C] | Structure (SMILES) |
| --- | --- |
| 74 to 75 | COc1ccc(C=C2SCCS2)cc1OC |
| 288 to 290 | CC(=NNC(=N)N)c1sc(-c2ccc3ccccc3c2)nc1C |
| 139 to 143 | CC(=O)Nc1ccc(S(=O)(=O)Nc2ccn(C3CC3)c(=O)n2)cc1 |
| 150 to 151 | COC(=O)c1cccc(-c2nnc(-c3ccc(N4CCOCC4)cc3)o2)c1 |
| 73 to 75 | CCSc1nc(-c2ccc(OC)cc2)c(-c2ccc(OC)cc2)s1 |
| 107 to 109 | COc1cc(C(=O)N2CCC(CCN3CCC(C(=O)c4nc5ccccc5n4Cc4ccc(F)cc4)CC3)(c3ccccc3)C2)cc(OC)c1OC (stereo not given) |
| 222 | O=C(NCCN1CCCCC1)c1nc(NCC(c2ccccc2)c2ccccc2)c2nc[nH]c2n1 |
| 164 to 166 | Cc1cc2c(cc1C)OC(CCN1CCC3(CC1)CNC(=O)CO3)CO2 (stereo not given) |
| 122 to 124 | CC(C(=O)N(C)C)n1cc(-c2ccccc2)c(-c2ccccc2)n1 (stereo not given) |
| 115 to 117 | O=c1c2ccccc2sn1CCN1CCN(c2ccccc2)CC1 |
| 191 to 192 | CCC(=O)NS(=O)(=O)c1ccc(C2=C(c3ccccc3)C(=O)C(C)(C)O2)cc1Cl |
| 168 to 169 | CCCCCCNC(=O)Nc1ccccc1C(=O)NCC1CCN(C(c2ccccc2)c2ccccc2)CC1 |
| 133 | COCCOc1ccc(CCNC(=O)C=Cc2ccccc2)cc1S(N)(=O)=O |
| 70 to 71.5 | Nc1c(Cl)cc(C(O)CNCCCCCOCCc2ccccc2)cc1C(F)(F)F (stereo not given) |
| 154 | COc1ccc(S(=O)(=O)n2c(=O)n(-c3ccccc3)c3cc(Cl)ccc32)cc1OC |
| 53 to 56 | COc1cc(CC(=O)N2CCN(C(=O)CNC3CCN(Cc4ccccc4)CC3)C(c3ccccc3)C2)cc(OC)c1OC (stereo not given) |
| 203 to 206 | O=C(O)c1ccc(C(=O)NOCC2CCc3ccccc3C2)cc1 (stereo not given) |
| 223 to 226 | CC(C)OC(=O)c1cc(-n2c(=O)[nH]c3c(c2=O)CCC3)c(Br)cc1Br |

| melting point [°C] | Structure (SMILES) |
| --- | --- |
| 208 to 210 | COc1ccc(-c2nc(NC(C)=O)sc2-c2cccnc2)cc1 |
| 189 to 190 | N=c1cc(NC(=S)NCc2ccccc2)nc2n1CCCS2 |
| 148 to 149 | O=C(c1ccc(F)c(F)c1)N1CCCC(c2noc(-c3ncc[nH]3)n2)C1 (stereo not given) |
| 82 to 84 | CCOC(=O)C1=Cc2cc(-c3ccc(C)cc3)ccc2OC1C (stereo not given) |
| 94 to 95 | CCN(C)c1nsc(N)c1C#N |
| 203 to 205 | Cc1nc2ccc(C(=O)NS(=O)(=O)c3ccccc3)nc2n1Cc1ccc(COc2ccccc2)cc1Cl |
| 94 to 95 | CCOc1ccc(-c2ccc(O)c(C=O)c2)cc1 |
| 244 to 246 | COc1ccc(C(=O)Cc2c(Cl)cncc2Cl)c2c(CC(=O)NCc3ccccc3)coc12 |
| 140 to 143 | Cc1nc(SCC(=O)c2cc(-c3ccc(C(F)(F)F)cc3)oc2C)sc1CC(=O)O |
| 70 to 71 | Cc1ccc(C(=O)N(CCCNC(=O)OC(C)(C)C)C(c2nc3snc(C)c3c(=O)n2Cc2ccccc2)C(C)C)cc1 (stereo not given) |
| 196 to 197 | CC(C)Oc1nccc2c1C(c1ccccc1C(F)(F)F)c1c(ccnc1OC(C)C)N2 |
| 152 | COc1ccc2c(c1)C(=O)C1=NCCCN12 |
| 232 to 235 | O=CNC1Cc2cc(Br)cc([N+](=O)[O-])c2NC1=O (stereo not given) |
| 78 to 79 | CCOC(=O)c1cc2c(C)cccc2n1CCC(=O)OC(C)(C)C |
| 84 to 85 | CCOC(=O)c1cc2cc(OC)c(OC)cc2s1 |
| 145 | COc1cc(-c2ccccc2C)cc2oc(=O)c(C)c(C)c12 |
| 202 | O=C(c1ccc(I)cc1)c1cc2c3c(c1)c(-c1cccc(Cl)c1)cc(=O)n3CC2 |
| 122 to 129 | COCCOc1cc(NC(=O)OC(C)(C)C)c(NC(=O)CC(=O)c2cccc(-n3ccnc3)c2)cc1C#Cc1ccccc1 |

Source: a melting point compilation (Tetko et al.; mined from patent text by program, amines drawn as free bases though some values may be those of a salt)
